Reference: ChEMBL document CHEMBL1201862, “PubChem BioAssay data set” (2004)
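Tested at 5 concentrations; 48 h exposure; 96-well plates; endpoints linearly interpolated, else capped at highest concentration. GI50 is the concentration that inhibits growth by half.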 Activity calls are given as the source filed them. Cut-off read from the data, not from the text of the source: active = GI50 up to about 1.1 µM and inactive = higher.

How the values were obtained:
Test in all cases: NCI-60 cell line screen, 48 h
A549 = system: A549
BT-549 = system: BT-549
DU-145 = system: DU-145
EKVX = system: EKVX
HL-60 = system: HL-60
HOP-92 = system: HOP-92
K562 = system: K562
M14 = system: M14
MCF7 = system: MCF7
MDA-MB-435 = system: MDA-MB-435
MOLT-4 = system: MOLT-4
NCI-H23 = system: NCI-H23
SF-295 = system: SF-295
SK-MEL-28 = system: SK-MEL-28
SK-MEL-5 = system: SK-MEL-5
SN12C = system: SN12C
SR = system: SR
TK-10 = system: TK-10
U-251 = system: U-251
UACC-257 = system: UACC-257

Measured: GI50

CCC1c2[nH]c3ccccc3c2C[C@H]2C(=O)NC(Cc3ccccc3)C(=O)N12 (stereo not given in full)
inactive: A549 30.1 µM | BT-549 22.4 µM | DU-145 40 µM | EKVX 30.3 µM | HL-60 20.7 µM | HOP-92 34.2 µM | K562 31.4 µM | M14 27.9 µM | MCF7 34.9 µM | MDA-MB-435 20.2 µM | MOLT-4 21.4 µM | NCI-H23 37.1 µM | SF-295 24.4 µM | SK-MEL-28 40 µM | SK-MEL-5 19.9 µM | SN12C 28.5 µM | SR 21.2 µM | TK-10 23.7 µM | U-251 22.8 µM | UACC-257 18 µM

CC[C@@]1(C)CCC2c3ccc(O)cc3CC[C@H]2C1C (stereo not given in full)
inactive: A549 17.9 µM | BT-549 19 µM | DU-145 16.6 µM | EKVX 18.2 µM | HL-60 10.8 µM | HOP-92 6.85 µM | K562 8.75 µM | M14 15.7 µM | MCF7 15.1 µM | MDA-MB-435 15.6 µM | MOLT-4 14.8 µM | NCI-H23 18 µM | SF-295 18.8 µM | SK-MEL-28 17.8 µM | SK-MEL-5 16.9 µM | SN12C 18.1 µM | SR 14.3 µM | TK-10 19.1 µM | U-251 17 µM | UACC-257 15.7 µM

NC(=O)CN1CC(C2=C(O)CN(CC(N)=O)C2=O)=CC1=O
inactive: A549 > 100 µM | BT-549 > 100 µM | DU-145 > 100 µM | EKVX > 100 µM | HL-60 > 100 µM | HOP-92 > 100 µM | K562 > 100 µM | M14 > 100 µM | MCF7 > 100 µM | MDA-MB-435 > 100 µM | MOLT-4 > 100 µM | NCI-H23 > 100 µM | SF-295 > 100 µM | SK-MEL-28 > 100 µM | SK-MEL-5 > 100 µM | SN12C > 100 µM | SR > 100 µM | TK-10 > 100 µM | U-251 > 100 µM | UACC-257 > 100 µM

N#C/C(=C\c1cn(Cc2ccccc2)c2ccccc12)c1nn(-c2ccccc2)c(N)c1C#N
inactive: A549 11.2 µM | BT-549 22.3 µM | DU-145 11.1 µM | EKVX 8.07 µM | HL-60 41.5 µM | HOP-92 8.41 µM | K562 24.3 µM | M14 20.4 µM | MCF7 28.2 µM | MDA-MB-435 20.6 µM | MOLT-4 26.1 µM | NCI-H23 14.2 µM | SF-295 11.1 µM | SK-MEL-28 27.7 µM | SK-MEL-5 11 µM | SN12C 15.3 µM | SR 24.7 µM | TK-10 15.8 µM | U-251 13.6 µM | UACC-257 20.1 µM

CS(=O)(=O)CCC1CCC(=O)O1 (stereo not given)
inactive: A549 43.6 µM | BT-549 53 µM | DU-145 96.8 µM | EKVX > 100 µM | HL-60 > 100 µM | HOP-92 > 100 µM | K562 > 100 µM | M14 > 100 µM | MCF7 58.9 µM | MDA-MB-435 > 100 µM | MOLT-4 22 µM | NCI-H23 94.2 µM | SF-295 92.9 µM | SK-MEL-28 > 100 µM | SK-MEL-5 > 100 µM | SN12C 68.1 µM | SR 85.1 µM | TK-10 > 100 µM | U-251 > 100 µM | UACC-257 > 100 µM

O=C(OCCN=C1c2ccccc2CCc2ccccc21)c1cc([N+](=O)[O-])cc([N+](=O)[O-])c1
inactive: A549 26.7 µM | BT-549 > 100 µM | DU-145 > 31.6 µM | EKVX > 31.6 µM | HL-60 25.7 µM | HOP-92 > 31.6 µM | K562 20.7 µM | M14 > 31.6 µM | MCF7 > 31.6 µM | MDA-MB-435 > 31.6 µM | MOLT-4 4.22 µM | NCI-H23 > 31.6 µM | SF-295 23.6 µM | SK-MEL-28 > 31.6 µM | SK-MEL-5 27.2 µM | SN12C > 31.6 µM | SR 3.52 µM | TK-10 > 31.6 µM | U-251 > 100 µM | UACC-257 > 31.6 µM

COc1ccc2c(O)c(S(=O)(=O)c3ccc(C)cc3)c(=O)oc2c1OC
inactive: A549 > 100 µM | BT-549 > 100 µM | DU-145 > 100 µM | EKVX > 100 µM | HL-60 > 100 µM | HOP-92 > 100 µM | K562 > 100 µM | M14 > 100 µM | MCF7 > 100 µM | MDA-MB-435 > 100 µM | MOLT-4 > 100 µM | NCI-H23 > 100 µM | SF-295 > 100 µM | SK-MEL-28 > 100 µM | SK-MEL-5 > 100 µM | SN12C > 100 µM | SR > 100 µM | TK-10 > 100 µM | U-251 > 100 µM | UACC-257 > 100 µM
